Data taken from patent US8198299B2, “Cycloalkylidene and heterocycloalkylidene inhibitor compounds” (Gilead Sciences, Inc., priority 2008, dated 2012).

molecular target: HDAC 1 (Homo sapiens, UniProt Q13547); experiment: HDAC 1 inhibition assay with about 3-hour enzyme/compound preincubation (fluorophore/quencher peptide substrate); assay type: biochemical; conditions: 3-hour preincubation of enzyme and compound at room temperature; read-out: HDAC 1 inhibitory activity (IC50 [μM]) (3-hour preincubation)
Method: HDAC inhibitory activity of the compound of Example 1 was measured by two types of assays in which HDAC 1 and 6 were used as a target molecule. The first assay was carried out without preincubation after addition of the enzyme. The test compound was suspended in and titrated in DMSO. It was then spotted into a 384-well test plate. The enzyme, HDAC 1 or 6, was diluted in assay buffer containing 25 mM Tris-HCl (pH 8.0), 137 mM NaCl, 2.7 mM KCl, and 0.01% Tween-20 and added to the pre-spotted compound. The peptide substrate containing a fluorophore/quencher pair was diluted in the same assay buffer and added to the compound/enzyme mix initiating the reaction. The reaction incubated at room temperature for about 45 minutes. A concentrated developer solution was diluted in the assay buffer, and added to the reaction. The reaction was incubated at room temperature for about 15 minutes and relative fluorescence was read on an instrument reader.
The second assay is similar to the first assay described above, except that preincubation is carried out for about 3 hours after the enzyme is introduced. The test compound was suspended in, and titrated in DMSO. It was then spotted into a 384-well test plate. The enzyme, HDAC 1 or 6, was diluted in the same assay buffer as used in the previous assay and added to the pre-spotted compound. The enzyme/compound mix was incubated at room temperature for about 3 hours. The peptide substrate containing a fluorophore/quencher pair was diluted in the assay buffer and added to the compound/enzyme mix initiating the reaction. The reaction incubated at room temperature for 45 minutes. A concentrated developer solution was diluted in the assay buffer, and added to the reaction. The reaction was incubated at room temperature for about 15 minutes and relative fluorescence was read on an instrument reader.

Chain of HDAC 1 (Q13547 whole entry, species assumed): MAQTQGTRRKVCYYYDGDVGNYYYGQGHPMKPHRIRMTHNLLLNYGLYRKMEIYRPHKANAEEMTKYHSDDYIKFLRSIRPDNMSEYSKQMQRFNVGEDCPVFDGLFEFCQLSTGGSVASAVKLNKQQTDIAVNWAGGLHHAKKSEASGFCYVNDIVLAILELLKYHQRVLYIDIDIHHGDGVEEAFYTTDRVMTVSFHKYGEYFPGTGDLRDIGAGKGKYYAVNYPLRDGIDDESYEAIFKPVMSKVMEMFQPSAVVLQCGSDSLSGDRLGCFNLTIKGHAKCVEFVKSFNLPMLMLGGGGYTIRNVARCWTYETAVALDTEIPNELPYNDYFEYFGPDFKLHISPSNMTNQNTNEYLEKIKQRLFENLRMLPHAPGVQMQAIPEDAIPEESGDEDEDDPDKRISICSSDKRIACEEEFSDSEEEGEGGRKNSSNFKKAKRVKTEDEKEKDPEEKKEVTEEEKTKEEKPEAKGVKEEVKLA

| Compound | IC50 |
| --- | --- |
| Nc1ccc(-c2cccs2)cc1NC(=O)c1ccc(C2(c3nc(CN4CCCC4)cs3)CCOCC2)cc1 [Example 31, N-(2-amino-5-(thiophen-2-yl)phenyl)-4-(4-(4-(pyrrolidin-1-ylmethyl)thiazol-2-yl)tetrahydropyran-4-yl)benzamide] | 0.001 µM |
| COCCOCc1csc(C2(c3ccc(C(=O)Nc4cc(-c5cccs5)ccc4N)cc3)CCOCC2)n1 [Example 32, N-(2-amino-5-(thiophen-2-yl)phenyl)-4-(4-(4-((2-methoxyethoxy)methyl)thiazol-2-yl)tetrahydropyran-4-yl)benzamide] | 0.0025 µM |
| Nc1ccc(-c2cccs2)cc1NC(=O)c1ccc(C2(c3nc(CN4CCOCC4)cs3)CCOCC2)cc1 [Example 33, N-(2-amino-5-(thiophen-2-yl)phenyl)-4-(4-(4-(morpholinomethyl)thiazol-2-yl)tetrahydropyran-4-yl)benzamide] | 0.0029 µM |
| Nc1ccccc1NC(=O)c1ccc(C2(c3nc(-c4ccc(N5CCN(C6CC6)CC5)nc4)cs3)CCOCC2)cc1 [Example 34, N-(2-aminophenyl)-4-(4-(4-(6-(4-cyclopropylpiperazin-1-yl)pyridin-3-yl)thiazol-2-yl)tetrahydropyran-4-yl)benzamide] | 0.0066 µM |
| Nc1ccccc1NC(=O)c1ccc(C2(c3nc(-c4ccc(N5CCNCC5)nc4)cs3)CCOCC2)cc1 [Example 35, N-(2-aminophenyl)-4-(4-(4-(6-(piperazin-1-yl)pyridin-3-yl)thiazol-2-yl)tetrahydropyran-4-yl)benzamide] | 0.0033 µM |
| Nc1ccc(-c2ccc(F)cc2)cc1NC(=O)c1ccc(C2(c3nccs3)CCOCC2)cc1 [Example 36, N-(4-amino-4′-fluorobiphenyl-3-yl)-4-(4-(thiazol-2-yl)tetrahydropyran-4-yl)benzamide] | 0.0029 µM |
| CCOc1csc(C2(c3ccc(C(=O)Nc4cc(-c5cccs5)ccc4N)cc3)CCOCC2)n1 [Example 37, N-(2-amino-5-(thiophen-2-yl)phenyl)-4-(4-(4-ethoxythiazol-2-yl)tetrahydropyran-4-yl)benzamide] | 0.00388 µM |
| Nc1ccc(-c2cccs2)cc1NC(=O)c1ccc(C2(c3nnn[nH]3)CCOCC2)cc1 [Example 38, 4-(4-(1H-tetrazol-5-yl)tetrahydropyran-4-yl)-N-(2-amino-5-(thiophen-2-yl)phenyl)benzamide] | 0.00311 µM |
| Nc1ccc(-c2ccc(F)cc2)cc1NC(=O)c1ccc(C2(c3nnn[nH]3)CCOCC2)cc1 [Example 39, 4-(4-(1H-tetrazol-5-yl)tetrahydropyran-4-yl)-N-(4-amino-4′-fluorobiphenyl-3-yl)benzamide] | 0.00333 µM |
| CCOc1csc(C2(c3ccc(C(=O)Nc4cc(-c5ccc(F)cc5)ccc4N)cc3)CCOCC2)n1 [Example 40, N-(4-amino-4′-fluorobiphenyl-3-yl)-4-(4-(4-ethoxythiazol-2-yl)tetrahydropyran-4-yl)benzamide] | 0.00639 µM |
| Nc1ccccc1NC(=O)c1ccc(C2(c3nc(-c4cnccn4)cs3)CCOCC2)cc1 [Example 41, N-(2-aminophenyl)-4-(4-(4-(pyrazin-2-yl)thiazol-2-yl)tetrahydropyran-4-yl)benzamide] | 0.00702 µM |
| O=C(NO)c1ccc(C2(c3nc(-c4cccnc4)cs3)CCOCC2)cc1 [Example 42, N-hydroxy-4-(4-(4-(pyridin-3-yl)thiazol-2-yl)tetrahydropyran-4-yl)benzamide] | 0.0351 µM |
| O=C(NO)c1ccc(C2(c3nccs3)CCOCC2)cc1 [Example 43, N-hydroxy-4-(4-(thiazol-2-yl)tetrahydropyran-4-yl)benzamide] | 0.363 µM |
| CN1CCN(c2ccc(-c3csc(C4(c5ccc(C(=O)NO)cc5)CCOCC4)n3)cn2)CC1 [Example 44, N-hydroxy-4-(4-(4-(6-(4-methylpiperazin-1-yl)pyridin-3-yl)thiazol-2-yl)tetrahydropyran-4-yl)benzamide] | 0.0071 µM |
| Nc1ccc(-c2ccc(Cl)s2)cc1NC(=O)c1ccc(C2(c3nccs3)CCOCC2)cc1 [Example 45, N-(2-amino-5-(5-chlorothiophen-2-yl)phenyl)-4-(4-(thiazol-2-yl)tetrahydropyran-4-yl)benzamide] | 0.00606 µM |
| Cc1ccc(-c2ccc(N)c(NC(=O)c3ccc(C4(c5nccs5)CCOCC4)cc3)c2)s1 [Example 46, N-(2-amino-5-(5-methylthiophen-2-yl)phenyl)-4-(4-(thiazol-2-yl)tetrahydropyran-4-yl)benzamide] | 0.00749 µM |
| CN1CCN(c2ccc(-c3csc(C4(c5ccc(C(=O)Nc6ccccc6N)cc5)CCOCC4)n3)cc2)CC1 [Example 47, N-(2-aminophenyl)-4-(4-(4-(4-(4-methylpiperazin-1-yl)phenyl)thiazol-2-yl)tetrahydropyran-4-yl)benzamide] | 0.00576 µM |

| Compound | IC50 |
| --- | --- |
| Nc1ccc(-c2ccc(F)cc2)cc1NC(=O)c1ccc(C2(c3nccs3)CC2)cc1 [Example 48, N-(4-amino-4′-fluorobiphenyl-3-yl)-4-(1-(thiazol-2-yl)cyclopropyl)benzamide] | 0.00294 µM |
| Nc1ccc(-c2cccs2)cc1NC(=O)c1ccc(C2(c3ccccn3)CCOCC2)cc1 [Example 49] | 0.00247 µM |
| Nc1ccc(-c2cccs2)cc1NC(=O)c1ccc(C2(c3nccs3)CC2)cc1 [Example 50, N-(2-amino-5-(thiophen-2-yl)phenyl)-4-(1-(thiazol-2-yl)cyclopropyl)benzamide] | 0.00262 µM |
| Nc1ccc(-c2cccs2)cc1NC(=O)c1ccc(C2(c3ncc(-c4cccnc4)s3)CCOCC2)cc1 [Example 51, N-(2-amino-5-(thiophen-2-yl)phenyl)-4-(4-(5-(pyridin-3-yl)thiazol-2-yl)tetrahydropyran-4-yl)benzamide] | 0.0039 µM |
| Cc1ccc(-c2ccc(N)c(NC(=O)c3ccc(C4(c5nccs5)CC4)cc3)c2)s1 [Example 52, N-(2-amino-5-(5-methylthiophen-2-yl)phenyl)-4-(1-(thiazol-2-yl)cyclopropyl)benzamide] | 0.00792 µM |
| O=C(NO)c1ccc(C2(c3nc(-c4cnccn4)cs3)CCOCC2)cc1 [Example 53, N-hydroxy-4-(4-(4-(pyrazin-2-yl)thiazol-2-yl)tetrahydropyran-4-yl)benzamide] | 0.0979 µM |
| Nc1ccc(-c2ccc(F)cc2)cc1NC(=O)c1ccc(C2(c3nc(-c4cnccn4)cs3)CCOCC2)cc1 [Example 54, N-(4-amino-4′-fluorobiphenyl-3-yl)-4-(4-(4-(pyrazin-2-yl)thiazol-2-yl)tetrahydropyran-4-yl)benzamide] | 0.00625 µM |
| Nc1ccccc1NC(=O)c1ccc(C2(c3nc(-c4cnccn4)cs3)CC2)cc1 [Example 55, N-(2-aminophenyl)-4-(1-(4-(pyrazin-2-yl)thiazol-2-yl)cyclopropyl)benzamide] | 0.0444 µM |
| CN1CCc2nc(C3(c4ccc(C(=O)Nc5cc(-c6ccc(F)cc6)ccc5N)cc4)CC3)sc2C1 [Example 56, N-(4-amino-4′-fluorobiphenyl-3-yl)-4-(1-(5-methyl-4,5,6,7-tetrahydrothiazolo[5,4-c]pyridine-2-yl)cyclopropyl)benzamide] | 0.00325 µM |
| Nc1ccc(F)cc1NC(=O)c1ccc(C2(c3nc(-c4cnccn4)cs3)CCOCC2)cc1 [Example 57, N-(2-amino-5-fluorophenyl)-4-(4-(4-(pyrazin-2-yl)thiazol-2-yl)tetrahydropyran-4-yl)benzamide] | 0.00774 µM |
| Nc1ccc(-c2ccc(F)cc2)cc1NC(=O)c1ccc(C2(c3nc4c(s3)COCC4)CC2)cc1 [Example 58, N-(4-amino-4′-fluorobiphenyl-3-yl)-4-(1-(6,7-dihydropyrano[4,3-d]thiazol-2-yl)cyclopropyl)benzamide] | 0.0208 µM |
| Nc1ccc(-c2ccc(F)cc2)cc1NC(=O)c1ccc(C2(c3ccccn3)CCOCC2)cc1 [Example 59, N-(4-amino-4′-fluorobiphenyl-3-yl)-4-(4-(pyridin-2-yl)tetrahydropyran-4-yl)benzamide] | 0.00231 µM |
| Nc1ccc(-c2ccc(Cl)s2)cc1NC(=O)c1ccc(C2(c3ccccn3)CCOCC2)cc1 [Example 60, N-(2-amino-5-(5-chlorothiophen-2-yl)phenyl)-4-(4-(pyridin-2-yl)tetrahydropyran-4-yl)benzamide] | 0.00616 µM |
| Cc1nc(C2(c3ccc(C(=O)Nc4cc(-c5ccc(F)cc5)ccc4N)cc3)CCOCC2)sc1C(C)O (stereo not drawn) [Example 61, N-(4-amino-4′-fluorobiphenyl-3-yl)-4-(4-(5-(1-hydroxyethyl)-4-methylthiazol-2-yl)tetrahydropyran-4-yl)benzamide] | 0.00209 µM |
| Cc1nc(C2(c3ccc(C(=O)Nc4cc(-c5ccc(F)cc5)ccc4N)cc3)CCOCC2)sc1C [Example 62, N-(4-amino-4′-fluorobiphenyl-3-yl)-4-(4-(4,5-dimethylthiazol-2-yl)tetrahydropyran-4-yl)benzamide] | 0.00896 µM |
| Cc1cnc(C2(c3ccc(C(=O)Nc4cc(-c5ccc(F)cc5)ccc4N)cc3)CCOCC2)s1 [Example 63, N-(4-amino-4′-fluorobiphenyl-3-yl)-4-(4-(5-methylthiazol-2-yl)tetrahydropyran-4-yl)benzamide] | 0.00428 µM |
